Drawing on US20100035873A1 (Pfizer Inc, priority 2008, published 2010), this text covers Ki for 14 compounds.

In this assay the target is T1, human kappa opioid receptor (Homo sapiens, UniProt P41145).
T1 construct: expressed in transfected cells; host or cells: CHO cells
Briefly: Binding assay, [3H]diprenorphine displacement on membranes from CHO cells (kappa assay). Particulars: membranes from CHO cells expressing human kappa opioid receptor, ranges given when more than one data point. As to the method: Binding assays on membranes from CHO cells expressing either human kappa, mu or delta opioid receptors were performed according to standard procedures. Briefly, frozen cell paste (70-80-mgs per 96 well plate) is homogenized in 50 mM Tris HCl buffer (pH 7.4 @ 4 degrees C.) containing 2.0 mM MgCl2 using a Polytron and spun in a centrifuge at 40,000 g for ten minutes. The final pellet is resuspended in assay buffer (50 mM Tris HCl buffer (pH 7.4) containing 1 mM EDTA, 5 mM MgCl2). Incubations were initiated by the addition of tissue to 96-well plates containing test drugs and 0.4-1 nM [3H]diprenorphine in a final volume of 250 ul). Non-specific binding was determined by radioligand binding in the presence of a saturating concentration of naltrexone (10 uM). After one hour incubation period at room temperature, assay samples were rapidly filtered through Whatman GF/B filters and rinsed with ice-cold 50 mM Tris buffer (pH 7.4). Membrane bound [3H]diprenorphine levels were determined by liquid scintillation counting of the filters in BetaScint. […] Ki values were calculated according to the Cheng Prusoff equation, Ki=IC50/(1+(L/Kd)), where L is the concentration of the radioligand used in the experiment and the Kd value is the dissociation constant for the radioligand (determined previously by saturation analysis).

T1 sequence (P41145 whole entry): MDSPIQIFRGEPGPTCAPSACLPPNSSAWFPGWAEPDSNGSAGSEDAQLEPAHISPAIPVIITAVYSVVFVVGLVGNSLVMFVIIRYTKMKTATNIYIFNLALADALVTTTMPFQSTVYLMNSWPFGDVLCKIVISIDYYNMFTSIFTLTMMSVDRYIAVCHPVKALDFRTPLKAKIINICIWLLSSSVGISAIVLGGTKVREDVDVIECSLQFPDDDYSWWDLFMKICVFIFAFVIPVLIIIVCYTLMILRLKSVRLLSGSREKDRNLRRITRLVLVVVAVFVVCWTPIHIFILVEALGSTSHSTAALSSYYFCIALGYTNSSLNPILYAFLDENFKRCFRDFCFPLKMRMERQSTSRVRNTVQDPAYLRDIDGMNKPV

`O=S(=O)(c1ccccc1-c1ccc(CNC2C[C@H]3CC[C@@H]2C3)cc1)N1CCCC1` (stereo partly drawn) [Example 4a, (1R,4S)-Bicyclo[2.2.1]hept-2-yl-[2′-(pyrrolidine-1-sulfonyl)-biphenyl-4-ylmethyl]-amine] showed a Ki of 0.58 to 0.66 nM.
In the case of `CC1(C)CCCN(Cc2ccc(-c3ccccc3S(=O)(=O)N3CCCC3)cc2)C1` [Example 4e, 3,3-Dimethyl-1-[2′-(pyrrolidine-1-sulfonyl)-biphenyl-4-ylmethyl]-piperidine], the Ki is 5.03 to 6.34 nM.
In turn, `O=S(=O)(c1ccccc1-c1ccc(CNC2CCOC2)cc1)N1CCCC1` (centres unmarked) [Example 4i, [2′-(Pyrrolidine-1-sulfonyl)-biphenyl-4-ylmethyl]-(tetrahydro-furan-3-yl)-amine] yielded a Ki of 6.59 to 13 nM.
The value for `CC(C)CNCc1ccc(-c2ccccc2S(=O)(=O)N2CCC[C@H]2C)cc1` [Example 4j, Isobutyl-[2′-((R)-2-methyl-pyrrolidine-1-sulfonyl)-biphenyl-4-ylmethyl]-amine] was 0.9 to 2.61 nM; that for `C[C@@H]1COCCN1S(=O)(=O)c1ccccc1-c1ccc(CNCCC(C)(C)C)cc1` [Example 4k, (3,3-Dimethyl-butyl)-[2′-((R)-3-methyl-morpholine-4-sulfonyl)-biphenyl-4-ylmethyl]-amine] was 1.19 to 2.34 nM; that for `O=S(=O)(c1ccccc1-c1ccc(CN2C[C@H]3CCC[C@@H]2C3)c(F)c1)N1CCCC1` [Example 4m, (1S,5R)-6-[3-Fluoro-2′-(pyrrolidine-1-sulfonyl)-biphenyl-4-ylmethyl]-6-aza-bicyclo[3.2.1]octane] was 1.41 to 6.84 nM.
The figure for `C[C@@H]1COCCN1S(=O)(=O)c1ccccc1-c1ccc(CNCCC(C)(C)C)c(F)c1` [Example 4o] is 2.11 to 5.08 nM; for `C[C@@H]1COCCN1S(=O)(=O)c1ccccc1-c1ccc(CNC2CC3CCC2C3)c(F)c1` (stereo partly drawn) [Example 4p, Bicyclo[2.2.1]hept-2-yl-[3-fluoro-2′-((R)-3-methyl-morpholine-4-sulfonyl)-biphenyl-4-ylmethyl]-amine] it is 2.68 to 6.78 nM; for `CC(C)CNCc1ccc(-c2ccccc2S(=O)(=O)N2CCC[C@H]2C)cc1F` [Example 4r, [3-Fluoro-2′-((R)-2-methyl-pyrrolidine-1-sulfonyl)-biphenyl-4-ylmethyl]-isobutyl-amine] it is 3.46 to 8.28 nM.
The figure for `O=S(=O)(c1ncccc1-c1ccc(CNC2CC3CCC2C3)cc1)N1CCCC1` [Example 4t, (5S,6R)-Bicyclo[2.2.1]hept-2-yl-{4-[2-(pyrrolidine-1-sulfonyl)-pyridin-3-yl]-benzyl}-amine] is 5.76 nM; for `CC(C)CNCc1ccc(-c2ccccc2S(=O)(=O)N(C)C(C)C)cc1` [Example 4v, 4′-(Isobutylamino-methyl)-biphenyl-2-sulfonic acid isopropyl-methyl-amide] it is 6.13 nM; for `CC(C)(C)CCNCc1ccc(-c2ncccc2S(=O)(=O)N2CCCC2)cc1` [Example 4w, (3,3-Dimethyl-butyl)-{4-[3-(pyrrolidine-1-sulfonyl)-pyridin-2-yl]-benzyl}-amine] it is 10.3 nM.
In turn, `O=S(=O)(c1cccnc1-c1ccc(CNC2C[C@@H]3CC[C@H]2C3)cc1)N1CCCC1` (stereo partly drawn) [Example 4x, (1S,4R)-Bicyclo[2.2.1]hept-2-yl-{4-[3-(pyrrolidine-1-sulfonyl)-pyridin-2-yl]-benzyl}-amine] displayed an inhibition constant Ki of 12.3 nM.
The value for `COc1cc(-c2ccccc2S(=O)(=O)N2CCCC2)ccc1CNCC(C)C` [Example 4y, Isobutyl-[3-methoxy-2′-(pyrrolidine-1-sulfonyl)-biphenyl-4-ylmethyl]-amine] was 12.5 to 24.8 nM.
